Results from US9499811B2, “Ligation enhancement” (New England Biolabs, Inc., priority 2011, dated 2016).
Where two headings read alike, the source gives them in different places.

Legend:
[1] = test system: ligase; settings: Xiao et al. 2007; nick junctions in double-stranded DNA; cited from earlier work
[2] = molecular target: T1, T4 DNA ligase (Enterobacteria phage T4, UniProt P00970); test: Cloning of a 500 bp amplicon made by Taq DNA polymerase into a T-tailed vector (ligation test system a); type: biochemical; parameters: purchased NEB (New England Biolabs), Ipswich, Mass. #M0202; settings: no addition = 1-fold, single-base overhangs
T1 sequence (P00970 1-487): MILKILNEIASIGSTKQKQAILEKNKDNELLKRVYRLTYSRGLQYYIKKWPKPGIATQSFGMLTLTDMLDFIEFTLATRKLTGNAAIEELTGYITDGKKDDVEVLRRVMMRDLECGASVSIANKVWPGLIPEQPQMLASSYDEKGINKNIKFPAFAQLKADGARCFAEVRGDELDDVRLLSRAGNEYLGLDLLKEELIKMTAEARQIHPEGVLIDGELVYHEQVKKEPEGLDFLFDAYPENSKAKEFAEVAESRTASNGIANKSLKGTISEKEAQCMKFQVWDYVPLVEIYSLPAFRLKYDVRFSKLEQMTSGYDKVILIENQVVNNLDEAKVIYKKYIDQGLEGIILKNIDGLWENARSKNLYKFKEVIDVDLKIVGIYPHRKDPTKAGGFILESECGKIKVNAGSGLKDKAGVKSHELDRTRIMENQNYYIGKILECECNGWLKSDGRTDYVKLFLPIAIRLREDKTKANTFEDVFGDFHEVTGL
Method: (§1) All were tested side-by-side using two ligation test systems which were: (a) cloning of a 500 bp amplicon made by Taq DNA polymerase into a T-tailed vector; and (b) recircularization of an AhdI-linearized plasmid. Both ligation test systems used DNA with single-base overhangs.
(§2) The reaction mixtures contained DNA at 50-100 ng and 1,2-PrD at different concentrations. 1 μl of regular concentration (NEB, Ipswich, Mass., #M0202; 400 units) or 1 μl of high concentration T4 DNA ligase (NEB, Ipswich, Mass., #M0202; 2000 units) was then added to a final volume of 21 μl in 1×T4 DNA Ligase Buffer (NEB, Ipwich, Mass., #B0202) or 1× Quick Ligase™ Buffer (NEB, Ipswich, Mass., #B2200).
(§3) A standard assay uses 100 ng DNA, 1 μl of T4 DNA ligase, 21 μl 1×T4 DNA ligase buffer and varying amounts of enhancer.
(§4) Ligation reactions were incubated for 10 min at room temperature (25° C.) unless otherwise stated, then placed on ice for 2 min. In some experiments the ligase was heat-killed by incubation at 65° C. for 20 min. The ligation reactions were analyzed by 1% agarose gel electrophoresis to identify DNA species and determine the efficiency of […].
(§5) A volume of 2 μl from each ligation reaction was incubated with 50 μl of chemically competent (NEB, Ipswich, Mass., #C2987I) or electrocompetent (NEB, Ipswich, Mass., #C2989K) DH5 alpha E. coli cells.
(§6) For chemically competent cell transformations, the cell-DNA mixture was incubated on ice for 30 min, heat-shocked at 42° C. for 30 sec, then returned to ice for 5 min. A volume of 950 μl SOC medium (2% vegetable peptone or Tryptone, 0.5% yeast extract, 10 mM NaCl, 2.5 mM KCl, 10 mM MgCl2, 10 mM MgSO4 and 20 mM glucose) was added to the cell-DNA mixture, followed by a one hr 37° C. outgrowth period with agitation. A volume of 25-50 μl of appropriately diluted cells in SOC was spread onto Rich Agar plates (composition per liter: 10 g soy peptone, 5 g yeast extract, 10 g NaCl, 1 g MgCl2-6H2O, 1 g dextrose, 15 grams agar) supplemented with 100 μg/ml ampicillin. Plates were inverted and incubated for 16 hrs at 37° C., followed by quantification of total colony numbers.

[3] = molecular target: T1, T4 DNA ligase; type: biochemical; parameters: purchased NEB (New England Biolabs), Ipswich, Mass. #M0202
Method: as §1, §2, §3, §4, §5, §6

[4] = molecular target: T1, T4 DNA ligase; settings: Pheiffer et al. 1983; cited from earlier work
[5] = enhancer at 12%, no addition = 1-fold, single-base overhangs

Compound | Effect on efficiency of ligation [1] | Cloning Enhancement ([2]; enhancer at 12%) | Recircularization Enhancement [3, 5] | also measured
C[S+](C)[O-] [DMSO, dimethyl sulfoxide] | inhibited the efficiency of the ligation reaction at nick junctions in double-stranded DNA | – | – | Cloning Enhancement ([2]; enhancer at 6%): 12-fold; Recircularization Enhancement ([3]; enhancer at 6%, no addition = 1-fold, single-base overhangs): 9-fold
PEG 400 | – | – | – | Effect on blunt-end ligation [4]: little effect on ligation
NC=O [formamide, reference compound] | inhibited the efficiency of the ligation reaction at nick junctions in double-stranded DNA | – | – | –
C[N+](C)(C)CC(=O)O [Betaine] | – | – | – | Cloning Enhancement ([2]; enhancer at 1.3M): 12-fold; Recircularization Enhancement ([3]; enhancer at 1.3M, no addition = 1-fold, single-base overhangs): 13-fold
CCO [Ethanol] | – | 25-fold | – | Recircularization Enhancement [3]: 9-fold
OCCCO [1,3-PrD, 1,3-propanediol] | – | 7-fold | 9 fold | –
CC(C)O [Isopropanol] | – | 16-fold | 10-fold | –
PEG 200 | – | – | – | Effect on blunt-end ligation [4]: little effect on ligation
OCC(O)CO [Glycerol] | inhibited the efficiency of the ligation reaction at nick junctions in double-stranded DNA | 4-fold | 5-fold | –
OCCO [Ethylene glycol] | – | 10-fold | – | Recircularization Enhancement [3]: 8-fold
